For seven compounds, IC50 results are on record in US8969343B2, “Histone demethylase inhibitors” (priority 2012, dated 2015).

Structures can show the parent of a compound that is named as a salt. Where two headings read alike, the source gives them in different places.

One experiment deals with T1, JMJD2C (Homo sapiens, UniProt Q9H3R0).
T1 sequence (Q9H3R0 2-372): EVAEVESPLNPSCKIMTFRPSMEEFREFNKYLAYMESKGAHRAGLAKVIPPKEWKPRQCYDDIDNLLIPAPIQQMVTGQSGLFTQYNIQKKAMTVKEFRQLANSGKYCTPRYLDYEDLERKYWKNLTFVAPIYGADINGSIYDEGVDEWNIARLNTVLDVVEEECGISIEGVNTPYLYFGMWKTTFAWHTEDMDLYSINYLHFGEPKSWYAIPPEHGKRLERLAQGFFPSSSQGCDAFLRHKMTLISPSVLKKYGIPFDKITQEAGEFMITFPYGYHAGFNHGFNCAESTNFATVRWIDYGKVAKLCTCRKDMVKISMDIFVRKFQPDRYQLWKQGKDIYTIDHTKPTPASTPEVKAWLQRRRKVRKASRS
Briefly: JMJD2C in vitro enzyme inhibition assay (TR-FRET). In kind it is biochemical. The note with it: 0.3 nM JMJD2C, 300 nM H3K9me3-biotin peptide, 2 μM alpha-ketoglutaric acid. How it is done:
(§1) This assay determines the ability of a test compound to inhibit Jarid1A, Jarid1B, and JMJD2C demethylase activity.
Reaction product was determined quantitatively by TR-FRET after the addition of detection reagent Phycolink Streptavidin-allophycocyanin (Prozyme) and Europium-anti-di-methylated histone H3 lysine 9 (H3K9me2) antibody (PerkinElmer) in the presence of 5 mM EDTA in LANCE detection buffer (PerkinElmer) at a final concentration of 50 nM and 1 nM, respectively.
The assay reaction was initiated by the following: 2 μl of the mixture of 900 nM H3K9me3-biotin labeled peptide and 6 μM alpha-ketoglutaric acid with 2 μl of 11-point serial diluted inhibitor in 3% DMSO were added to each well of the plate, followed by the addition of 2 μl of 0.9 nM JMJD2C to initiate the reaction. The reaction mixture was incubated at room temperature for 30 minutes, and terminated by the addition of 6 μl of 5 mM EDTA in LANCE detection buffer containing 100 nM Phycolink Streptavidin-allophycocyanin and 2 nM Europium-anti-H3K9me2 antibody.
(In general: Time-resolved FRET reads energy transfer from a long-lived donor to a nearby acceptor.)

A further experiment addresses T2, Jarid1B (Homo sapiens, UniProt Q9UGL1).
T2 sequence (Q9UGL1 2-751): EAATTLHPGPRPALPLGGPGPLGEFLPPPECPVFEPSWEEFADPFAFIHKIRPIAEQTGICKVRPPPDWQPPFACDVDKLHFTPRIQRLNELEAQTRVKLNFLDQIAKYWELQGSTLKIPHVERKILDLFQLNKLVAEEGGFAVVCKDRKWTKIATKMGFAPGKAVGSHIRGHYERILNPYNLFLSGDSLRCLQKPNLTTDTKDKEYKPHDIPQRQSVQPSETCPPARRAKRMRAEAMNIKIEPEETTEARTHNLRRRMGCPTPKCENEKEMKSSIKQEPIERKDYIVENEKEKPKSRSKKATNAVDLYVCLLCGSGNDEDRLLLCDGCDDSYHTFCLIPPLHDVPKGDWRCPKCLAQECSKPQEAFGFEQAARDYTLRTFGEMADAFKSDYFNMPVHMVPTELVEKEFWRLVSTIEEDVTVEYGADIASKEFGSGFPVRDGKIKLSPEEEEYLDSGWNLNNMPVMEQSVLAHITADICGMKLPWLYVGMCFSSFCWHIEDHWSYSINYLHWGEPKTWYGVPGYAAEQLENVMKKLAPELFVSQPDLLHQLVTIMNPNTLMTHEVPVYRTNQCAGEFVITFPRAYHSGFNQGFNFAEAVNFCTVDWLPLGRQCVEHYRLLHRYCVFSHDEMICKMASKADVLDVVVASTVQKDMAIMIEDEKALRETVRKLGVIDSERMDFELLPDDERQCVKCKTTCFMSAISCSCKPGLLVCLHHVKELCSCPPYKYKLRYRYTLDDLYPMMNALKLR
Briefly: Jarid1B in vitro enzyme inhibition assay (TR-FRET). In kind it is biochemical. The note with it: 0.8 nM Jarid1B, 300 nM H3K4me3-biotin peptide, 2 μM alpha-ketoglutaric acid. How it is done:
as §1
The reaction mixture was incubated at room temperature for 30 minutes, and terminated by the addition of 6 μl of 5 mM EDTA in LANCE detection buffer containing 50 nM Phycolink Streptavidin-allophycocyanin and 2 nM Europium-anti-H3K4me1-2 antibody.

A further experiment has as its target T3, Jarid1A (Homo sapiens, UniProt P29375).
T3 construct: purchased BPS Bioscience 50110
T3 sequence (P29375 1-1090): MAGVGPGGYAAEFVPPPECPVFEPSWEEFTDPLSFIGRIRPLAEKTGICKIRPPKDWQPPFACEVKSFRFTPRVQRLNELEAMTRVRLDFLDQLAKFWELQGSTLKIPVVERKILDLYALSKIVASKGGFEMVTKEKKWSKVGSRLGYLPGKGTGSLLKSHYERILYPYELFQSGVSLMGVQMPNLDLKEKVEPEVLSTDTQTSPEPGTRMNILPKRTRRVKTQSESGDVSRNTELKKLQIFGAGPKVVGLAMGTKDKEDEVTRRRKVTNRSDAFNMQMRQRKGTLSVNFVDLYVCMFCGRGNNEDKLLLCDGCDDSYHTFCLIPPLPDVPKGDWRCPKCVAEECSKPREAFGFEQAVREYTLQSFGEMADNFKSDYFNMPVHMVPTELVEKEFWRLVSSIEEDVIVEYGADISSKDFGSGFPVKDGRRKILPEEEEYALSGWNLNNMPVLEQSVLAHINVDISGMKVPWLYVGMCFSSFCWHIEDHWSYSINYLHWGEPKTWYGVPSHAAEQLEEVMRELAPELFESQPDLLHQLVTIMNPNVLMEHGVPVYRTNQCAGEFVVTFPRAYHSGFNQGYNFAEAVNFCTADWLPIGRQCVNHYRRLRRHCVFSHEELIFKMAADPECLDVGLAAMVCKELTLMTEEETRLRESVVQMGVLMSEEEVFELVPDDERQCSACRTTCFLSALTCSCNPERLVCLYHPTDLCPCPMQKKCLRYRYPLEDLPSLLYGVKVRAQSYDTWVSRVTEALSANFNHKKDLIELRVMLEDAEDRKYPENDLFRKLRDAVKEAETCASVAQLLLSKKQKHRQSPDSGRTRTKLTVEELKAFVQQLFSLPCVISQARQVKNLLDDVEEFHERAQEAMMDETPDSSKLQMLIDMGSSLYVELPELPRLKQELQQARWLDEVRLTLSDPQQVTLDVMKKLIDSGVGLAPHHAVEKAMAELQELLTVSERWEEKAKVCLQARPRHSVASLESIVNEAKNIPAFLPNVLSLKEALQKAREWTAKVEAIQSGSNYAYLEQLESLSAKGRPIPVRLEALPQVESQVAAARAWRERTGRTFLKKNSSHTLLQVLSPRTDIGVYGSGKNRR
Briefly: Jarid1A in vitro enzyme inhibition assay (TR-FRET). In kind it is biochemical. How it is done:
as §1
The enzymatic assay of Jarid1A activity is based upon Time Resolved-Fluorescence Resonance Energy Transfer (TR-FRET) detection. […] The assay reaction was initiated by the following: 2 μl of the mixture of 900 nM H3K4me3-biotin labeled peptide and 6 μM alpha-ketoglutaric acid with 2 μl of 11-point serial diluted inhibitor in 3% DMSO was added to each well of plate, followed by the addition of 2 μl of 3 nM Jarid1A to initiate the reaction. The reaction mixture was incubated at room temperature for 30 minutes, and terminated by the addition of 6 μl of 5 mM EDTA in LANCE detection buffer containing 50 nM Phycolink Streptavidin-allophycocyanin and 2 nM Europium-anti-H3K4me1-2 antibody.

The subject of another experiment is KDM5A/B. Briefly: In vitro cell-based assay: tri-methyl H3K4 immuno-blotting in ZR-75-1 breast cancer cells. The note with it: 72 hours, tri-methyl H3K4, relative IC50, read-out: Cellular IC50. As to the method: This quantitative immuno-blotting assay measures the amount tri-methylated histone H3 at amino acid Lysine number 4, a specific substrate […] of the direct enzymatic activity of the histone demethylases KDM5A and KDM5B from extracts of the ZR-75-1 breast cancer cell line.
This assay is a fluorometric immunoassay for the quantification of tri-methyl H3K4 extracted from cells treated with test compound and is used as a measure of the cellular inhibition of KDM5A/B.
Extracts were prepared containing all of the cellular histone material using detergent based lysis and sonication methods. These lysates were subsequently normalized for total protein content using a colorimetric bicinchonic acid assay (MicroBCA Pierce/Thermo Scientific). Normalized cell extracts were then subjected to typical immuno-blotting procedures using NuPage reagents (Life Technologies). […] The amount of tri-methylated lysine 4 of histone H3 was detected using an antibody specific to the tri-methylated state (Cell Signaling Technologies) and quantified on an infrared imager using a densitometry software package (Odyssey CLx, Image Studio, Li-Cor). This background subtracted densitometry value was reported as a ration of the GAPDH amount for that sample and then calculated as a percent of the DMSO treated sample. […]

Where [1] appears, read: 1 nM Jarid1A, 300 nM H3K4me3-biotin peptide, 2 μM alpha-ketoglutaric acid.

As usually defined, the IC50 is the concentration that inhibits the measured activity by half. `O=C(O)c1ccncc1Nc1nn(Cc2ccccc2)c2ccc(F)cc12` [Example 24, 3-[(1-benzyl-5-fluoro-1H-indazol-3-yl)amino]pyridine-4-carboxylic acid]: the IC50 against JMJD2C is 100 to 1000 nM; against Jarid1B, under 100 nM; against Jarid1A (setting [1]), under 100 nM; with KDM5A/B, over 10000 nM.
With `Cn1nc2ccccc2c1Nc1cnccc1C(=O)O` [Example 2, 3-[(2-methyl-2H-indazol-3-yl)amino]pyridine-4-carboxylic acid], the values for the IC50 against JMJD2C, at Jarid1B and against Jarid1A (setting [1]) were 100 to 1000 nM, 1000 to 10000 nM and 1000 to 10000 nM, respectively.
`CNCCCCCn1nc(Nc2cnccc2C(=O)O)c2cc(F)ccc21` [Example 46, 3-({5-fluoro-1-[5-(methylamino)pentyl]-1H-indazol-3-yl}amino)pyridine-4-carboxylic acid, trifluoroacetic acid salt]: the 50% inhibitory concentration (IC50) against JMJD2C, against Jarid1B and against Jarid1A (setting [1]) was under 100 nM throughout.
As to `CN(C)CCCCCn1nc(Nc2cnccc2C(=O)O)c2cc(F)ccc21` [Example 22], the IC50 is 100 to 1000 nM against JMJD2C, under 100 nM against Jarid1B and under 100 nM on Jarid1A.
`CN(C)CC#CCn1nc(Nc2cnccc2C(=O)O)c2cc(F)ccc21` [Example 49, 3-({1-[4-(dimethylamino)but-2-yn-1-yl]-5-fluoro-1H-indazol-3-yl}amino)pyridine-4-carboxylic acid, trifluoroacetic acid salt]: the IC50 against JMJD2C, on Jarid1B and against Jarid1A (setting [1]) was under 100 nM in each case.
Consider `O=C(O)c1ccncc1Nc1nn(C2CCC(F)(F)CC2)c2ccc(F)cc12` [Example 64, 3-{[1-(4,4-difluorocyclohexyl)-5-fluoro-1H-indazol-3-yl]amino}pyridine-4-carboxylic acid], for which the IC50 against JMJD2C, on Jarid1B and at Jarid1A (setting [1]) was 1000 to 10000 nM in each case.
For `O=C(O)c1ccncc1Nc1cn(C2CCOC2)c2ccc(F)cc12` (centres unmarked) [Example 68, 3-{[5-fluoro-1-(tetrahydrofuran-3-yl)-1H-indol-3-yl]amino}pyridine-4-carboxylic acid], the IC50 against JMJD2C is 100 to 1000 nM.
